“Also recorded” adds a separate entry of the source. Read-outs that look alike come from different tables or passages of the source. Each block holds one molecule with its values, some of them ahead of it.
Experiments:
Assay type in all cases: physicochemical
[1] = Heat and vapor stress (vacuum drying, RH jar) with XRPD analysis of the resulting solid form; conditions: for XRPD Results after vapor stress: ~94% RH vapor stress at RT for ~3 days; for Result of vacuum drying (Additional Information): temperature and time not stated in Table V
Method: X-ray powder diffraction analyses were performed using an Inel XRG-3000 diffractometer equipped with a CPS (Curved Position Sensitive) detector with a 2θ range of 120°. Real time data were collected using CuKα radiation at a resolution of 0.03° 2θ. The tube voltage and amperage were set to 40 kV and 30 mA, respectively. The monochromator slit was set at 5 mm by 160 μm. […] Samples were prepared into thin-walled glass capillaries for analysis. Each capillary was mounted onto a goniometer head that was motorized to permit spinning of the capillary during data acquisition. The samples were analyzed for 300 seconds. Instrument calibration was performed using a silicon reference standard.
Samples were placed in a RH jar of specified relative humidity at ambient temperature or elevated temperature for a given amount of time. Samples were placed in heating/vacuum oven at specified temperature for thermal stressing.

[2] = Solubility of the HBr salt of Form A in selected solvents, estimated by solvent addition under ambient conditions
Method: The solubility of the HBr salt of Form A in selected solvents was estimated by solvent addition under ambient conditions to provide preliminary information for the polymorph screen. […] This material is sparingly soluble in methanol, methanol/chloroform (1:1), and methanol/tetrahydrofuran (˜14-20 mg/mL).

[3] = Moisture sorption/desorption (VTI SGA-100 Vapor Sorption Analyzer, 5% to 95% RH); conditions: for Hygroscopicity (moisture sorption data are consistent with): 5% to 95% RH; for Weight gain upon increase in relative humidity: from ~5% to ~95% RH; for Weight loss upon decrease in relative humidity: from ~95% to ~5% RH
Method: Moisture soption/desorption data were collected on a VTI SGA-100 Vapor Sorption Analyzer. Sorption and desorption data were collected over a range of 5% to 95% relative humidity (RH) at 10% RH intervals under a nitrogen purge. Samples were not dried prior to analysis. Equilibrium criteria used for analysis were less than 0.0100% weight change in 5 min, with a maximum equilibration time of 3 hrs if the weight criterion was not met. Data were not corrected for the initial moisture content of the samples. NaCl and PVP were used as calibration standards.

Compound: Cc1cc(Nc2nc(C(O)c3ccc(F)cc3)nc3ccccc23)n[nH]1 (centres unmarked) [Disordered Form A, (4-fluorophenyl)(4-(5-methyl-1H-pyrazol-3-ylamino)quinazolin-2-yl)methanol]
- XRPD Results after vapor stress [1]: Disordered A
- XRPD Results after vapor stress ([1]; listed as disordered Form A): remained disordered

Compound: Cc1cc(Nc2nc(C(O)c3ccc(F)cc3)nc3ccccc23)n[nH]1 (centres unmarked) [Form A, (4-fluorophenyl)(4-(5-methyl-1H-pyrazol-3-ylamino)quinazolin-2-yl)methanol]
- solubility ([2]; DMF/water (1:1), aqueous with cosolvent or surfactant or cyclodextrin, thermodynamic from solid, solvent DMF/water (1:1), read-out: Solubility): 30000 µg/mL
- solubility ([2]; DMF/water (1:2), aqueous with cosolvent or surfactant or cyclodextrin, thermodynamic from solid, solvent DMF/water (1:2), read-out: Solubility): 4000 µg/mL
- solubility ([2]; DMF/water (1:4), aqueous with cosolvent or surfactant or cyclodextrin, thermodynamic from solid, solvent DMF/water (1:4), read-out: Solubility): < 2000 µg/mL
- solubility ([2]; DMF/water (1:9), aqueous with cosolvent or surfactant or cyclodextrin, thermodynamic from solid, solvent DMF/water (1:9), read-out: Solubility): < 2000 µg/mL
- solubility ([2]; MeOH/THF (1:1), organic solvent or mixture, thermodynamic from solid, solvent MeOH/THF (1:1), read-out: Solubility): 14000 to 20000 µg/mL
- solubility ([2]; MeOH/chloroform (1:1), organic solvent or mixture, thermodynamic from solid, solvent MeOH/chloroform (1:1), read-out: Solubility): 14000 to 20000 µg/mL
- solubility ([2]; acetone, organic solvent or mixture, thermodynamic from solid, solvent Acetone, read-out: Solubility): < 2000 µg/mL
- solubility ([2]; acetonitrile, organic solvent or mixture, thermodynamic from solid, solvent ACN, read-out: Solubility): < 2000 µg/mL
- solubility ([2]; chloroform, organic solvent or mixture, thermodynamic from solid, solvent Chloroform, read-out: Solubility): < 2000 µg/mL
- solubility ([2]; dichloromethane, organic solvent or mixture, thermodynamic from solid, solvent DCM, read-out: Solubility): < 2000 µg/mL
- solubility ([2]; dimethylformamide, organic solvent or mixture, thermodynamic from solid, solvent DMF, read-out: Solubility): > 114000 µg/mL
- solubility ([2]; ethanol, organic solvent or mixture, thermodynamic from solid, solvent EtOH, read-out: Solubility): 3000 to 7000 µg/mL
- solubility ([2]; ethyl acetate, organic solvent or mixture, thermodynamic from solid, solvent EtOAc, read-out: Solubility): < 2000 µg/mL
- solubility ([2]; hexafluoroisopropanol, organic solvent or mixture, thermodynamic from solid, solvent HFIPA (hexafluoroisopropanol), read-out: Solubility): > 128000 µg/mL
- solubility ([2]; isopropyl alcohol, organic solvent or mixture, thermodynamic from solid, solvent IPA, read-out: Solubility): < 2000 µg/mL
- solubility ([2]; methanol, organic solvent or mixture, thermodynamic from solid, solvent MeOH, read-out: Solubility): 14000 to 20000 µg/mL
- solubility ([2]; nitromethane, organic solvent or mixture, thermodynamic from solid, solvent Nitromethane, read-out: Solubility): < 2000 µg/mL
- solubility ([2]; solvent ACN): <2000 µg/mL
- solubility ([2]; solvent Acetone): <2000 µg/mL
- solubility ([2]; solvent Chloroform): <2000 µg/mL
- solubility ([2]; solvent DCM): <2000 µg/mL
- solubility ([2]; solvent DMF): >114000 µg/mL
- solubility ([2]; solvent DMF/water (1:4)): <2000 µg/mL
- solubility ([2]; solvent DMF/water (1:9)): <2000 µg/mL
- solubility ([2]; solvent EtOAc): <2000 µg/mL
- solubility ([2]; solvent EtOH): 3000 µg/mL
- solubility ([2]; solvent HFIPA (hexafluoroisopropanol)): >128000 µg/mL
- solubility ([2]; solvent IPA): <2000 µg/mL
- solubility ([2]; solvent MeOH): 18000 µg/mL
- solubility ([2]; solvent MeOH/THF (1:1)): 14000 µg/mL
- solubility ([2]; solvent MeOH/chloroform (1:1)): 16000 µg/mL
- solubility ([2]; solvent Nitromethane): <2000 µg/mL
- solubility ([2]; solvent THF): <2000 µg/mL
- solubility ([2]; solvent Toluene): <2000 µg/mL
- solubility ([2]; solvent Water): <2000 µg/mL
- solubility ([2]; t-butanol/water (3:1), organic solvent or mixture, thermodynamic from solid, solvent t-Butanol/water (3:1), read-out: Solubility): 6000 µg/mL
- solubility ([2]; tetrahydrofuran, organic solvent or mixture, thermodynamic from solid, solvent THF, read-out: Solubility): < 2000 µg/mL
- solubility ([2]; toluene, organic solvent or mixture, thermodynamic from solid, solvent Toluene, read-out: Solubility): < 2000 µg/mL
- solubility ([2]; water, thermodynamic from solid, solvent Water, read-out: Solubility): < 2000 µg/mL
- Hygroscopicity (moisture sorption data are consistent with) [3]: limited hygroscopic material
- Weight loss upon equilibration at ~5% RH [3]: ~0.3 wt %
- Weight gain upon increase in relative humidity [3]: 1.0 wt %
- Weight loss upon decrease in relative humidity [3]: ~1.0 wt %

Compound: Cc1cc(Nc2nc(C(O)c3ccc(F)cc3)nc3ccccc23)n[nH]1 (centres unmarked) [Form B, (4-fluorophenyl)(4-(5-methyl-1H-pyrazol-3-ylamino)quinazolin-2-yl)methanol]
- Result of vacuum drying (Additional Information) [1]: primarily consistent with Form A
- XRPD Results after vacuum drying ([1]; vacuum at ~60° C. for ~1 day): mixture of Form A with small amount of Form B

Compound: Cc1cc(Nc2nc(C(O)c3ccc(F)cc3)nc3ccccc23)n[nH]1 (centres unmarked) [Form C, (4-fluorophenyl)(4-(5-methyl-1H-pyrazol-3-ylamino)quinazolin-2-yl)methanol]
- Result of vacuum drying (Additional Information) ([1]; listed as C): Forms A and C.
- XRPD Results after vacuum drying ([1]; vacuum at ~80° C. for ~1 day): mixture of Forms A and C

Compound: Cc1cc(Nc2nc(C(O)c3ccc(F)cc3)nc3ccccc23)n[nH]1 (centres unmarked) [Form D, (4-fluorophenyl)(4-(5-methyl-1H-pyrazol-3-ylamino)quinazolin-2-yl)methanol]
- Result of vacuum drying (Additional Information) ([1]; listed as D): Form A.
- XRPD Results after vacuum drying ([1]; vacuum at ~40° C. for ~3 days): consistent with Form A

The next lines start with results.

- Hygroscopicity (moisture sorption data are consistent with) [3]: limited hygroscopic material
- Weight loss upon equilibration at ~5% RH [3]: ~0.2 wt %
- Weight gain upon increase in relative humidity [3]: 0.6 wt %
- Weight loss upon decrease in relative humidity [3]: ~0.6 wt %
- Result of vacuum drying (Additional Information) [1]: remained the same after vacuum
Compound: Cc1cc(Nc2nc(C(O)c3ccc(F)cc3)nc3ccccc23)n[nH]1 (centres unmarked) [Form E, (4-fluorophenyl)(4-(5-methyl-1H-pyrazol-3-ylamino)quinazolin-2-yl)methanol]
- XRPD Results after vacuum drying ([1]; vacuum at ~60° C. for ~2 days): No changes were observed in the XRPD pattern; also recorded: physically stable; also recorded: Form E

- XRPD Results after vacuum drying ([1]; vacuum at ~60° C. for ~1 day): Form A +
Compound: Cc1cc(Nc2nc(C(O)c3ccc(F)cc3)nc3ccccc23)n[nH]1 (centres unmarked) [Forms A + B, (4-fluorophenyl)(4-(5-methyl-1H-pyrazol-3-ylamino)quinazolin-2-yl)methanol]
- XRPD Results after vacuum drying ([1]; vacuum at ~60° C. for ~2 days, listed as Forms A and B): primarily consistent with Form A with a minor amount of Form B

— patent publication US8633209B2, “Hydrobromide salts of a pyrazolylaminoquinazoline” (Ambit Biosciences Corporation, priority 2010, dated 2014)
